Drawing on patent US11802127B2, “3,4-dihydro-2,7-naphthyridine-1,6(2H,7H)-diones as MEK inhibitors” (Pfizer Inc., priority 2021, dated 2023), this text covers Kp,uu (unbound brain-to-unbound plasma ratio) and Papp for six compounds.

Data set [1] can be described thus: PK (Free Brain-to-Free Plasma Ratio) (Mouse). The following applies: brain and plasma, male CD-1 mice, oral gavage 10 mg/kg, sampling 2, 4, 8, 12 and 24 hours, (B/P)*(Bfu/Pfu). The class given is in vivo. On the procedure:
The ability of representative compounds to penetrate the BBB in mice was determined by evaluating the unbound brain-to-unbound plasma (also referred to as free brain-to-free plasma) concentration ratio in male CD-1 mice.
Brain compound levels were generated from oral mouse PK dosing with typical sampling times of 2, 4, 8, 12 and 24 hours post oral gavage dosing at 10 mg/kg. Brain samples were stored at −20±5° C. prior to analysis. Concentrations of test compound in mouse brain homogenate were determined by liquid chromatography tandem mass spectrometry (LC-MS/MS) following protein precipitation with acetonitrile. A 12-point calibration curve, ranging from 0.5 to 10,000 ng/mL, was prepared in duplicate. A solution of 400 μg/mL of test compound in dimethyl sulfoxide (DMSO) was serially diluted (3-fold) in 100% DMSO, and then 2.5 μL of each standard solution was added to 100 μL of naïve male CD-1 mice brain homogenate. To mimic the extraction in the standard curve, 2.5 μL of DMSO was added to all test samples. Both calibration and test brain homogenate samples were spiked with 10 μL of an IS (1 μg/mL of a structural analog). Brain homogenate was generated by adding 0.75 mL of 4:1 water:MeOH to each brain sample followed by homogenization for 1 minute with bead beater tubes a 6 m/s using an MP Fast Prep-24®. Proteins were precipitated from 100 μL of brain homogenate sample by the addition of 300 μL of acetonitrile. Samples were vortex-mixed for 5 minutes and spun in an Allegra X-12R centrifuge (Beckman Coulter, Fullerton, CA; SX4750A rotor) for 15 min at about 1,500×g at 4° C. A 100 μL aliquot of each supernatant was transferred via a 550 μL Personal Pipettor (Apricot Designs, Monrovia, CA) to 96-well plates and diluted 1:1 with HPLC grade water. The resulting plates were sealed with aluminum for LC-MS/MS analysis.
Brain-to-plasma ratios were calculated using the concentration of compound measured in the brain divided by the concentration of compound measured in the plasma. Brain-to-plasma ratios were always generated from a single animal and time point. Free brain-to-free plasma ratios were calculated by multiplying the brain-to-plasma ratio by the in vitro brain homogenate free fraction divided by the in vitro plasma free fraction using the following equation: (B/P)*(Bfu/Pfu).

Data set [2] is described as follows: MDR1 LLC-PK1 and BCRP MDCKII Permeability Assay: permeability coefficient (Papp). In kind it is in vitro ADME. To be noted: MDCK, test article 1 μM, 37° C. In short, it runs like this:
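Bidirectional (A to B, B to A) transport of test article (1 μM, 1% organic) across MDR1-transfected LLC-PK1 or BCRP-transfected MDCKII (canine P-gp knockout) monolayers, 2 h at 37° C., 5% CO2, in triplicate. Lucifer yellow monitored monolayer integrity. Concentrations measured by LC-MS/MS against labetalol internal standard.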

What is called Papp is the rate of passage across a membrane or cell layer, normalised by area and donor concentration. `Cn1c(Nc2ccc(OC(F)F)cc2F)c2c(cc1=O)CCN(OCCO)C2=O` [Example 22, 8-((4-(difluoromethoxy)-2-fluorophenyl)amino)-2-(2-hydroxyethoxy)-7-methyl-3,4-dihydro-2,7-naphthyridine-1,6(2H,7H)-dione]: the Kp,uu (unbound brain-to-unbound plasma ratio) in data set [1] was 0.33 to 2.92. Also, the apparent permeability coefficient (Papp) at 2 h, 1 μM in data set [2] came to 24.6 ×10⁻⁶ cm/s.

With `Cc1c2c(c(Nc3ccc(Br)cc3F)n(C)c1=O)C(=O)N(OCCO)CC2` [Example 36, 8-((4-bromo-2-fluorophenyl)amino)-2-(2-hydroxyethoxy)-5,7-dimethyl-3,4-dihydro-2,7-naphthyridine-1,6(2H,7H)-dione], the Kp,uu (unbound brain-to-unbound plasma ratio) in data set [1] lay in the range of 0.83 to 2.09. Besides, the apparent permeability coefficient (Papp) at 2 h, 1 μM in data set [2] is 31.1 ×10⁻⁶ cm/s.

In the case of `Cn1c(Nc2ccc(I)cc2F)c2c(cc1=O)CCN(OCCO)C2=O` [Example 8, 8-((2-fluoro-4-iodophenol)amino)-2-(2-hydroxyethoxy)-7-methyl-3,4-dihydro-2,7-naphthyridine-1,6(2H,7H)-dione], in data set [1], the Kp,uu (unbound brain-to-unbound plasma ratio) fell in the range of 1.01 to 16.1. The same compound yielded an apparent permeability coefficient (Papp) at 2 h, 1 μM in data set [2] of 34.2 ×10⁻⁶ cm/s.

For the compound `CSc1ccc(Nc2c3c(cc(=O)n2C)CCN(OCCO)C3=O)c(F)c1` [Example 6, 8-((2-fluoro-4-(methylthio)phenyl)amino)-2-(2-hydroxyethoxy)-7-methyl-3,4-dihydro-2,7-naphthyridine-1,6(2H,7H)-dione], the Kp,uu (unbound brain-to-unbound plasma ratio) in data set [1] lay in the range of 0.88 to 1.26. This compound also showed an apparent permeability (Papp) at 2 h, 1 μM in data set [2] of 32.1 ×10⁻⁶ cm/s.

On to `Cn1c(Nc2ccc(Br)cc2F)c2c(cc1=O)CCN(OCCO)C2=O` [Example 7, 8-((4-bromo-2-fluorophenyl)amino)-2-(2-hydroxyethoxy)-7-methyl-3,4-dihydro-2,7-naphthyridine-1,6(2H,7H)-dione], for which the Kp,uu (unbound brain-to-unbound plasma ratio) in data set [1] fell in the range of 0.62 to 1.06. The apparent permeability (Papp) at 2 h, 1 μM in data set [2] was found to be 34.5 ×10⁻⁶ cm/s.

For `CCc1ccc(Nc2c3c(cc(=O)n2C)CCN(OCCO)C3=O)c(F)c1` [Example 14, 8-((4-ethyl-2-fluorophenyl)amino)-2-(2-hydroxyethoxy)-7-methyl-3,4-dihydro-2,7-naphthyridine-1,6(2H,7H)-dione], the Kp,uu (unbound brain-to-unbound plasma ratio) in data set [1] lay in the range of 0.57 to 1.58. The compound further came in with a Papp at 2 h, 1 μM in data set [2] of 31.1 ×10⁻⁶ cm/s.
